Data on six molecules can be found in US5491159A, “2-(3,5-di-tert-butyl-4-hydroxy-phenyl)-oxazoles as anti-atherosclerotic agents” (American Home Products Corporation, priority 1994, dated 1996).

What is called IC50 is the concentration that inhibits the measured activity by half.

One test relates to rabbit or monkey LDL. The test can be described thus: Inhibition of Copper Ion Mediated Oxidation of Low Density Lipoprotein (in vitro). Format: biochemical. The settings on record: Cu^+2, rabbit or monkey LDL, 37° C., 90 minutes, absorbance at 532 nm; non-linear regression log [I] vs. % inhibition. As for the experimental part:
In this in vitro assay, the inhibition of Cu^+2 mediated oxidation of rabbit or monkey LDL by an invention compound is determined spectrophotometrically. Oxidation of LDL results in the formation of LDL-diene which absorbs light at 532 nm. Inhibition of oxidation of LDL leads to a decrease in absorbance at 532 nm.
Rabbit or monkey LDL is prepared according to the procedures of Havel, Eder and Gragdon, "The Distribution and Chemical Composition of Ultracentrifugally Separated Lipoproteins in Human Serum,: J. Clin. Invest. 34, 1345-1353 (1955) and Parhtasarathy, Wieland and Steriberg, "A Role for Endothelial Cell Lipoxygenase in the Oxidative Modification of Low Density Lipoprotein, " Proc. Natl. Acad. Sci. USA 86, 1046-1050 (1989). Test compound solutions are prepared by dissolving the invention compounds in ethanol at concentrations up to 248 μM. The medium used is Dulbecco's phosphate buffered saline containing 0.5 mg/ml bovine serum albumin. For standards, 0 to 10 μl of an aqueous solution of 1,1,3,3-tetraethoxypropane (1 μmol/ml H2 O) in 4.1 ml of medium is used.
Test compound solution (100 μl) is added to 4 ml of medium in incubation tubes. To each tube is added 10 μl of LDL solution and 25 μl of aqueous copper sulfate solution (1.32 mg/ml H2 O). The tubes are incubated at 37° C. for 90 minutes and the oxidation reaction quenched by addition of 1 ml of thiobarbituric acid solution (0.67% in 50% acetic acid). The tubes are heated at 90° C. for 1 hour, then chilled in an ice bath and the chromophore extracted into 2 ml of n-butanol. Absorbence is read at 532 nm and the results are reported as nmols of malondialdehyde equivalents.
Significant differences (p<0.05) are determined by the Dunnett T-test or by the Student-Newman Keuls Test for significant differences between means. The assay is conducted using several concentrations [I] of the inhibitor test compounds. The LDL solution concentrations at different experiments were either 1.5 mg/ml, 2.5 mg/ml or 10.3 mg/ml. The IC50 is determined by non-linear regression, plotting log [I] vs. % inhibition. (Reference: K. Yagi, Biochemical Medicine 15, 212-216 (1976)).

For test [1], the system named is LDL. The conditions noted are these: cited from earlier work.
In test [2] the test system is LDL. The conditions noted are these: cited from earlier work. This is another data set of the same source.
Another test relates to WHHL rabbits. The conditions noted are these: cited from earlier work.

In the test on rabbit or monkey LDL, `COC(=O)Cc1nc(-c2cc(C(C)(C)C)c(O)c(C(C)(C)C)c2)oc1C` [Example 1, [2-(3,5-di-tert-butyl-4-hydroxyphenyl)-5-methyloxazol-4-yl]-acetic acid methyl ester] gave an IC50 of 70 nM.

Turning to `Cc1oc(-c2cc(C(C)(C)C)c(O)c(C(C)(C)C)c2)nc1CC(=O)O` [Example 2, [2-(3,5-di-tert-butyl-4-hydroxyphenyl)-5-methyloxazol-4-yl]-acetic acid], inhibition in the test on rabbit or monkey LDL was half-maximal at 160 nM (IC50). Same read-out and setting: the figure for `CCOC(=O)Cc1nc(-c2cc(C(C)(C)C)c(O)c(C(C)(C)C)c2)oc1C` [Example 3, [2-(3,5-di-tert-butyl-4-hydroxyphenyl)-5-methyloxazol-4-yl]-acetic acid ethyl ester] is 270 nM. `COC(=O)Cc1coc(-c2cc(C(C)(C)C)c(O)c(C(C)(C)C)c2)n1` [Example 4, [2-(3,5-di-tert-butyl-4-hydroxyphenyl)-oxazol-4-yl]-acetic acid methyl ester]: it took 250 nM to reach half-maximal inhibition in the test on rabbit or monkey LDL (IC50). The same measure, in the same setting: as for `COC(=O)NC(=O)Cc1nc(-c2cc(C(C)(C)C)c(O)c(C(C)(C)C)c2)oc1C` [Example 5, {2-[2-(3,5-di-tert-butyl-4-hydroxyphenyl)-5-methyloxazol-4-yl]acetyl}carbamic acid methyl ester], the figure is 230 nM. As for `CC(C)(Sc1cc(C(C)(C)C)c(O)c(C(C)(C)C)c1)Sc1cc(C(C)(C)C)c(O)c(C(C)(C)C)c1` [probucol], the IC50 in the test with rabbit or monkey LDL is 270 nM. For the same molecule, in the test on LDL [1], the “inhibition of cell mediated oxidative modification of LDL (in words)” value is “inhibits both cell mediated and Cu^+2 mediated oxidative modification of LDL”. Also, the “inhibition of Cu^+2 mediated oxidative modification of LDL (in words)” value with LDL [2] was “inhibits both cell mediated and Cu^+2 mediated oxidative modification of LDL”. For the same molecule, the “inhibition of the formation of atherosclerotic lesions (in words)” value in the test on WHHL rabbits is on record as “inhibit the formation of atherosclerotic lesions in WHHL rabbits”.
